Data on 24 compounds can be found in US20250171462A1 (NICO Therapeutics, Inc., priority 2022, published 2025).

In this experiment the target is T1, full-length SARM1 (FL-SARM1) (Homo sapiens, UniProt Q6SZW1).
T1 sequence (Q6SZW1 28-724): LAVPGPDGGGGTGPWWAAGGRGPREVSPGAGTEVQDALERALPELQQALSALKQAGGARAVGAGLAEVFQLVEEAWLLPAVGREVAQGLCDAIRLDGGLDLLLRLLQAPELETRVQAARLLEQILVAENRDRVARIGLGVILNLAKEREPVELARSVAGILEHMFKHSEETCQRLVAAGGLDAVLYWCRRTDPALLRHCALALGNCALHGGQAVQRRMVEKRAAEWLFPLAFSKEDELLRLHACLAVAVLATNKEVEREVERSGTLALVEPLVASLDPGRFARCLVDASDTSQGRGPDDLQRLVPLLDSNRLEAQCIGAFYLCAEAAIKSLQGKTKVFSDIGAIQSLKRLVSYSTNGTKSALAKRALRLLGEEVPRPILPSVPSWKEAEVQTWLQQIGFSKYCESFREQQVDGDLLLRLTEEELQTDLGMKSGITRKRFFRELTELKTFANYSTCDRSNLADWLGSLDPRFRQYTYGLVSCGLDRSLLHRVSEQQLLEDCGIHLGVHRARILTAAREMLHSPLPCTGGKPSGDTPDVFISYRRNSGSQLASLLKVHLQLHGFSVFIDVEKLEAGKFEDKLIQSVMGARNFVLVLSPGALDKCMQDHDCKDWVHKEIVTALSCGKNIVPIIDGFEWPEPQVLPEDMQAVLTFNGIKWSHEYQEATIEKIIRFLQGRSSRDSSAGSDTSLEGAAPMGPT
In words: FL-SARM1 cellular lysate assay (NAD/NADH-Glo detection of remaining NAD+, NMN-activated).

[1] abbreviates: Activity (IC50 class), 11 point curve.
Where [2] appears, read: Activity (μM) (IC50), 11 point curve.
Where [3] appears, read: read-out: Activity (IC50 class), 11 point curve.

Like-named read-outs stand apart in the source and are kept apart here. Where only a bound is given, the exact number is not on record here.

On to `COc1cccc(-c2cc(NC(=O)[C@@H]3CC3(F)F)ccc2C)n1` [Example 153, (1S)-2,2-difluoro-N-[3-(6-methoxypyridin-2-yl)-4-methylphenyl]cyclopropane-1-carboxamide], for which the IC50 was more than 10 µM under setting [1] and 18 µM under setting [2].

Turning to `Cc1ccc(NC(=O)N2C3CCC2[C@H](C)C3)cc1-c1ncc(F)cn1` (single isomer, unassigned) [Example 198, trans-N-[3-(5-fluoropyrimidin-2-yl)-4-methylphenyl]-2-methyl-7-azabicyclo[2.2.1]heptane-7-carboxamide], the IC50 was 0.3 µM under setting [2] and 0.0001 to 1 µM under setting [3].

Turning to `Cc1ccc(NC(=O)N2C3CCCC2C3)cc1-c1ncc(F)c(C)n1` [Example 326], the IC50 under setting [1] is 1 to 10 µM and the IC50 under setting [2] was found to be 1.4 µM.

With `Cc1ccc(NC(=O)N2C3CCCC2C3)cc1-c1cc(C(F)(F)F)cnn1` [Example 66, N-(4-methyl-3-(5-(trifluoromethyl)pyridazine-3-yl)phenyl)-6-azabicyclo[3.1.1]heptane-6-carboxamide], the IC50 is 0.5 µM under setting [2] and 0.0001 to 1 µM under setting [3].

For the compound `Cc1ccc(NC(=O)N2CCOCCC2C)cc1-c1ncc(F)cn1` (racemic) [Example 225, N-[3-(5-fluoropyrimidin-2-yl)-4-methylphenyl]-5-methyl-1,4-oxazepane-4-carboxamide], the IC50 is more than 10 µM under setting [1] and 32 µM under setting [2].

As for `Cc1cc(F)c(NC(=O)N2[C@@H]3C[C@@H](C)C[C@H]2C3)cc1-c1ccccn1` [Example 255, cis-N-(2-fluoro-4-methyl-5-pyridin-2-ylphenyl)-3-methyl-6-azabicyclo[3.1.1]heptane-6-carboxamide], the 50% inhibitory concentration (IC50) is 0.02 µM under setting [2] and 0.0001 to 1 µM under setting [3].

As to `Cc1c(Br)cc(NC(=O)N2C3CCCC2C3)cc1-c1ccccn1` [Example 78, N-(3-bromo-4-methyl-5-(pyridin-2-yl)phenyl)-6-azabicyclo[3.1.1]heptane-6-carboxamide], the half-inhibitory concentration (IC50) was 0.7 µM under setting [2] and 0.0001 to 1 µM under setting [3].

Consider `Cc1ccc(NC(=O)C2CN(CC(F)(F)F)C2)cc1-c1ccccn1` [Example 132, N-(4-methyl-3-pyridin-2-ylphenyl)-1-(2,2,2-trifluoroethyl)azetidine-3-carboxamide], for which the IC50 reads like this: under setting [1], more than 10 µM; under setting [2], 43 µM.

Consider `O=C(Nc1ccc(C(F)(F)F)c(-c2ccccn2)c1)[C@@H]1CC1(F)F` [Example 150, (1S)-2,2-difluoro-N-[3-pyridin-2-yl-4-(trifluoromethyl)phenyl] cyclopropane-1-carboxamide], for which the IC50 under setting [1] was in the range of 1 to 10 µM and the 50% inhibitory concentration (IC50) under setting [2] was found to be 3.7 µM.

With `Cc1ccc(NC(=O)C2CC23CCC3)cc1-c1cccnn1` (racemic) [Example 293, N-(4-methyl-3-pyridazin-3-ylphenyl)spiro[2.3] hexane-2-carboxamide], the IC50 runs as follows: under setting [1], 1 to 10 µM; under setting [2], 2.4 µM.

Turning to `Cc1ccc(NC(=O)N2[C@@H]3C[C@@H](C)C[C@H]2C3)cc1-c1cc(OCF)cnn1` [Example 185, cis-N-(3-(5-(fluoromethoxy)pyridazin-3-yl)-4-methylphenyl)-3-methyl-6-azabicyclo[3.1.1]heptane-6-carboxamide], the IC50 by setting is: under setting [2], 0.05 µM; under setting [3], 0.0001 to 1 µM.

Take `Cc1ccc(NC(=O)N2C3CCCC2C3)cc1-c1ncccc1C1CC1` [Example 32, N-(3-(3-cyclopropylpyridin-2-yl)-4-methylphenyl)-6-azabicyclo[3.1.1]heptane-6-carboxamide]: the IC50 by setting is: under setting [1], 1 to 10 µM; under setting [2], 6.1 µM.

`CCOC(C)[C@@]12CC(C[C@@H](C)C1)N2C(=O)Nc1ccc(C)c(-c2ncc(F)cn2)c1` (single isomer, unassigned) [Example 189, cis-1-(1-ethoxyethyl)-N-(3-(5-fluoropyrimidin-2-yl)-4-methylphenyl)-3-methyl-6-azabicyclo[3.1.1]heptane-6-carboxamide] came in with an IC50 under setting [1] of 1 to 10 µM and an IC50 under setting [2] of 1.9 µM.

Take `O=C(Nc1ccc(C(F)(F)F)c(-c2ncc(F)cn2)c1)N1CCCCCC1` [Example 313, N-(3-(5-fluoropyrimidin-2-yl)-4-(trifluoromethyl)phenyl) azepane-1-carboxamide]: 0.8 µM corresponded to half-maximal inhibition under setting [2] (IC50) and the IC50 under setting [3] is 0.0001 to 1 µM.

As for `Cc1ccc(NC(=O)N2C3CCC2c2c(F)cncc23)cc1-c1ccccn1` (stereo not drawn) [Example 15, 4-fluoro-N-(4-methyl-3-(pyridin-2-yl)phenyl)-5,6,7,8-tetrahydro-5,8-epiminoisoquinoline-9-carboxamide], the half-inhibitory concentration (IC50) was 0.4 µM under setting [2] and 0.0001 to 1 µM under setting [3].

For the compound `Cc1ccc(NC(=O)C2C3CCC2(c2ccccn2)C3)cc1-c1ncc(F)cn1` (mixture of isomers) [Example 318], the IC50 under setting [1] was in the range of 1 to 10 µM and half-maximal inhibition under setting [2] (IC50) was put at 1.5 µM.

As for `Cc1ccc(NC(=O)N2C3C[C@H](C)C[C@@H]2C3)cc1-c1cc(F)cnn1` [Example 220, cis-N-[3-(5-fluoropyridazin-3-yl)-4-methylphenyl]-3-methyl-6-azabicyclo[3.1.1]heptane-6-carboxamide], the IC50 under setting [2] was found to be 0.1 µM and the IC50 under setting [3] lay within 0.0001 to 1 µM.

Regarding `Cc1ccc(NC(=O)N2C3CC2CN(c2ncccn2)C3)cc1-c1ccccn1` [Example 72, N-(4-methyl-3-(pyridin-2-yl)phenyl)-3-(pyrimidin-2-yl)-3,6-diazabicyclo[3.1.1]heptane-6-carboxamide], the IC50 by setting is: under setting [1], 1 to 10 µM; under setting [2], 1.2 µM.

Turning to `CCc1ccc(-c2cc(NC(=O)[C@@H]3CC3(F)F)ccc2C)nc1` [Example 146, (1S)-N-[3-(5-ethylpyridin-2-yl)-4-methylphenyl]-2,2-difluorocyclopropane-1-carboxamide], the IC50 runs as follows: under setting [1], 1 to 10 µM; under setting [2], 7.3 µM.

Regarding `Cc1ccc(NC(=O)C2COC(C)(C)CN2c2ncccn2)cc1-c1ncccn1` (single isomer, unassigned) [Example 207, 6,6-dimethyl-N-(4-methyl-3-(pyrimidin-2-yl)phenyl)-4-(pyrimidin-2-yl)morpholine-3-carboxamide], the IC50 under setting [1] was more than 10 µM and the IC50 under setting [2] was more than 50 µM.

`Cc1ccc(NC(=O)C(Cc2ncccn2)C2CCC2)cc1-c1ncc(F)cn1` (racemic) [Example 302, 2-cyclobutyl-N-(3-(5-fluoropyrimidin-2-yl)-4-methylphenyl)-3-(pyrimidin-2-yl)propanamide] gave an IC50 under setting [1] of 1 to 10 µM and an IC50 under setting [2] of 3 µM.

As to `Cc1ccc(NC(=O)[C@H]2CC[C@H]3C[C@H]3N2c2ncccn2)cc1-c1ncc(F)cn1` [Example 292, (1R,3R,6S)-N-[3-(5-fluoropyrimidin-2-yl)-4-methylphenyl]-2-pyrimidin-2-yl-2-azabicyclo[4.1.0]heptane-3-carboxamide], the concentration for half-maximal inhibition (IC50) was 1 to 10 µM under setting [1] and 2 µM under setting [2].

In the case of `COC(=O)C12CCCC(C1)N2C(=O)Nc1ccc(C)c(-c2ccccn2)c1` (stereo not drawn) [Example 9, Methyl 6-[[4-methyl-3-(2-pyridyl)phenyl]carbamoyl]-6-azabicyclo[3.1.1]heptane-1-carboxylate], the IC50 reads like this: under setting [2], 0.1 µM; under setting [3], 0.0001 to 1 µM.

Take `Cc1ccc(NC(=O)N2CCCC2c2nccn2C)cc1-c1ccccn1` (racemic) [Example 93, 2-(1-methylimidazol-2-yl)-N-(4-methyl-3-pyridin-2-ylphenyl)pyrrolidine-1-carboxamide]: the 50% inhibitory concentration (IC50) under setting [1] was more than 10 µM and the IC50 under setting [2] turned out to be 21 µM.

As usually defined, the IC50 is the concentration that gives 50% inhibition.
